Data on 30 compounds can be found in patent publication US6133294A (priority 1999, dated 2000).

Assay type in all cases: in vivo
In test [1] the test system is Puccinia recondita. The test can be described thus: Brown rust (Puccinia recondita--PUCCRT). Particulars: wheat (cultivar Monon), 100 ppm spray to run off, inoculated after 24 hours; for pest or weed control at 100 ppm: Puccinia recondita, 1DP, read-out: control of plant disease, PUCCRT 1DP. The procedure: (§1) Compound Formulation: Compound formulation was accomplished by dissolving technical materials in acetone, with serial dilutions then made in acetone to obtain desired rates. Final treatment volumes were obtained by adding nine volumes 0.05% aqueous Tween-20 or Triton X-100, depending upon the pathogen.
Brown rust (Puccinia recondita--PUCCRT): Wheat (cultivar Monon) was grown from seed in a soilless peat-based potting mixture (Metromix) until the seedlings were […]). These plants were then sprayed to run off with the test compound at a rate of 100 ppm. After 24 hours the test plants were inoculated with an aqueous spore suspension of Puccinia recondita. The plants were then transferred to the greenhouse until disease developed on the untreated control plants.
(§2) the following table presents the activity of typical compounds of the present invention when evaluated in these experiments. The effectiveness of the test compounds in controlling disease was rated using the following scale: […]

The test system of test [2] is Leptosphaeria nodorum. The test can be described thus: Glume blotch of wheat (Leptosphaeria nodorum--LEPTNO). Particulars: wheat (cultivar Monon), 100 ppm spray to run off, inoculated after 24 hours; for pest or weed control at 100 ppm: Parastagonospora nodorum, 1DP, read-out: control of plant disease, LEPTNO 1DP. The procedure: as §1
Glume blotch of wheat (Leptosphaeria nodorum--LEPTNO): Wheat (cultivar Monon) was grown from seed in a soilless peat-based potting mixture (Metromix) until the seedlings were 1-2 leaf (BBCH 12). These plants were then sprayed to run off with the test compound at a rate of 100 ppm. After 24 hours the test plants were inoculated with an aqueous spore suspension of Leptosphaeria nodorum. The plants were then transferred to the greenhouse until disease developed on the untreated control plants.
as §2

Test [3] concerns Erysiphe graminis. Put plainly: Powdery Mildew of Wheat (Erysiphe graminis--ERYSGT). Particulars: wheat (cultivar Monon), 100 ppm spray to run off, inoculated after 24 hours; for pest or weed control at 100 ppm: Blumeria graminis, 1DP, read-out: control of plant disease, ERYSGT 1DP. The procedure: as §1
Powdery Mildew of Wheat (Erysiphe graminis--ERYSGT): Wheat (cultivar Monon) was grown in a soilless peat-based potting mixture (Metromix) until the seedlings were 1-2 leaf (BBCH 12). These plants were then sprayed to run off with the test compound at a rate of 100 ppm. After 24 hours the test plants were inoculated with Erysiphe graminis by dusting spores from stock plants onto the test plants. The plants were then transferred to the greenhouse until disease developed on the untreated control plants.
as §2

Test [4] has as its system Phytophthora infestans. The test can be described thus: whole plant or invertebrate. Particulars: for pest or weed control at 100 ppm: Phytophthora infestans, 24 h, read-out: control of plant disease, PHYTIN 1DP.

On to `CNC(=O)C(=NOC)c1ccccc1COc1ncc(-c2nnc(C3CC3)o2)cc1Cl` [Example 1, Benzeneacetamide, 2-[[[3-chloro-5-(5-cyclopropyl-1,3,4-oxadiazol-2-yl)-2-pyridinyl]oxy]methyl]-α-(methoxyimino)-N-methyl-], for which the pest or weed control at 100 ppm in test [1] lay within 75 to 100%; in test [2], 0 to 24%; in test [3], 0 to 24%; in test [4] it was 75 to 100%.

Regarding `CNC(=O)C(=NOC)c1ccccc1COc1ncc(-c2nnc(-c3ccccc3)o2)cc1Cl` [Example 2], the pest or weed control at 100 ppm lay in the range of 75 to 100% in test [1], 75 to 100% in test [2], 25 to 74% in test [3] and 75 to 100% in test [4].

Turning to `CNC(=O)C(=NOC)c1ccccc1COc1ncc(-c2nnc(C)o2)cc1Cl` [Example 3], the pest or weed control at 100 ppm in test [1], in test [2], in test [3] and in test [4] was 75 to 100% each time.

Turning to `CNC(=O)C(=NOC)c1ccccc1COc1ncc(-c2nnc(C(C)(C)C)o2)cc1Cl` [Example 4], the pest or weed control at 100 ppm in test [1] lay within 75 to 100%; in test [2], 75 to 100%; in test [3], 75 to 100%; in test [4], 0 to 24%.

Regarding `CCc1nnc(-c2cnc(OCc3ccccc3C(=NOC)C(=O)NC)c(Cl)c2)o1` [Example 5], the pest or weed control at 100 ppm in test [1], in test [2], in test [3] and in test [4] was 75 to 100% each time.

Take `CNC(=O)C(=NOC)c1ccccc1COc1ncc(-c2noc(C(C)(C)C)n2)cc1Cl` [Example 6, Benzeneacetamide, 2-[[[3-chloro-5-(5-t-butyl-1,2,4-oxadiazol-3-yl)-2-pyridinyl]oxy]methyl]-α-(methoxyimino)-N-methyl-]: the pest or weed control at 100 ppm in test [1], in test [2], in test [3] and in test [4] was 75 to 100% each time.

For `CNC(=O)C(=NOC)c1ccccc1COc1ncc(-c2noc(-c3ccccc3)n2)cc1Cl` [Example 7], the pest or weed control at 100 ppm in test [1], in test [2], in test [3] and in test [4] was 75 to 100% in each case.

For `CNC(=O)C(=NOC)c1ccccc1COc1ncc(-c2noc(C)n2)cc1Cl` [Example 8], the pest or weed control at 100 ppm in test [1] was in the range of 75 to 100%; in test [2], 75 to 100%; in test [3], 75 to 100%; in test [4], 0 to 24%.

Regarding `CNC(=O)C(=NOC)c1ccccc1COc1ccc(-c2noc(C(C)(C)C)n2)cn1` [Example 9], the pest or weed control at 100 ppm in test [1] was in the range of 75 to 100%; in test [2] it was 75 to 100%; in test [3] it was 75 to 100%; in test [4] it was 0 to 24%.

On to `CNC(=O)C(=NOC)c1ccccc1COc1ccc(-c2noc(C)n2)cn1` [Example 10], for which the pest or weed control at 100 ppm in test [1] was in the range of 75 to 100%; in test [2], 75 to 100%; in test [3] it was 75 to 100%; in test [4], 0 to 24%.

With `CNC(=O)C(=NOC)c1ccccc1COc1ncc(-c2noc(C(F)(F)F)n2)cc1Cl` [Example 11], the pest or weed control at 100 ppm in test [1] was 75 to 100%; in test [2] it was 75 to 100%; in test [3], 75 to 100%; in test [4], 0 to 24%.

Take `CNC(=O)C(=NOC)c1ccccc1COc1ccc(-c2noc(-c3ccccc3)n2)cn1` [Example 12]: the pest or weed control at 100 ppm in test [1], in test [2], in test [3] and in test [4] was 75 to 100% each time.

For the compound `CNC(=O)C(=NOC)c1ccccc1COc1ncc(-c2noc(C3CCCC3)n2)cc1Cl` [Example 13], the pest or weed control at 100 ppm is 75 to 100% in test [1], 75 to 100% in test [2], 75 to 100% in test [3] and 0 to 24% in test [4].

On to `CCCCC(CC)c1nc(-c2cnc(OCc3ccccc3C(=NOC)C(=O)NC)c(Cl)c2)no1` (centres unmarked) [Example 14], for which the pest or weed control at 100 ppm in test [1] lay within 75 to 100%; in test [2], 75 to 100%; in test [3] it was 75 to 100%; in test [4] it was 0 to 24%.

For `CNC(=O)C(=NOC)c1ccccc1COc1ncc(-c2noc(C34CC5CC(CC(C5)C3)C4)n2)cc1Cl` [Example 15], the pest or weed control at 100 ppm in test [1] fell in the range of 75 to 100%; in test [2], 0 to 24%; in test [3] it was 75 to 100%; in test [4], 75 to 100%.

As for `CNC(=O)C(=NOC)c1ccccc1COc1ccc(-c2noc(C(F)(F)F)n2)cn1` [Example 16], the pest or weed control at 100 ppm in test [1] lay within 75 to 100%; in test [2], 0 to 24%; in test [3], 75 to 100%; in test [4] it was 0 to 24%.

For `CNC(=O)C(=NOC)c1ccccc1COc1ncc(-c2noc(CC(C)(C)C)n2)cc1Cl` [Example 17], the pest or weed control at 100 ppm in test [1] is 75 to 100%; in test [2], 75 to 100%; in test [3], 75 to 100%; in test [4], 0 to 24%.

For `CNC(=O)C(=NOC)c1ccccc1COc1ncc(-c2noc(-c3ccco3)n2)cc1Cl` [Example 18], the pest or weed control at 100 ppm in test [1] was in the range of 75 to 100%; in test [2], 75 to 100%; in test [3], 25 to 74%; in test [4], 75 to 100%.

Take `O=C(NNC(=O)C1CC1)c1cnc(Cl)c(Cl)c1` [Example 19]: in test [1], the “control of plant disease, PUCCRT 1DP” value is “++ (75-100% control of plant disease)”. Besides, in test [2], the “control of plant disease, LEPTNO 1DP” value is “++ (75-100% control of plant disease)”. Also, in test [3], the “control of plant disease, ERYSGT 1DP” value is on record as “++ (75-100% control of plant disease)”. In addition, the “control of plant disease, PHYTIN 1DP” value in test [4] (tomatoes (cultivar Rutgers), 100 ppm spray to run off, inoculated after 24 hours, 1DP) was “- (0-24% control of plant disease)”.

Regarding `CNC(=O)C(=NOC)c1ccccc1COc1ccc(-c2cc(-c3ccccc3)on2)cn1` [Example 44], in test [4], the pest or weed control at 100 ppm fell in the range of 0 to 24%.

For `CNC(=O)C(=NOC)c1ccccc1COc1ccc(-c2cc(C)on2)cn1` [Example 45], the pest or weed control at 100 ppm in test [4] lay within 25 to 74%.

As for `CNC(=O)C(=NOC)c1ccccc1COc1ncc(-c2nc(COc3ccccc3)no2)cc1Cl` [Example 57], the figures for the pest or weed control at 100 ppm in test [1], in test [2] and in test [3] were 75 to 100%, 25 to 74% and 75 to 100%, respectively.

As to `CNC(=O)C(=NOC)c1ccccc1COc1ncc(-c2nc(CSc3ccccc3)no2)cc1Cl` [Example 58], the pest or weed control at 100 ppm in test [1], in test [2] and in test [3] was 75 to 100% in each case.

Take `CNC(=O)C(=NOC)c1ccccc1COc1ncc(-c2nc(C(C)C)no2)cc1Cl` [Example 59]: the pest or weed control at 100 ppm in test [1], in test [2] and in test [3] was 75 to 100% throughout.

`CNC(=O)C(=NOC)c1ccccc1COc1ncc(-c2nc(C(C)(C)C)no2)cc1C` [Example 60]: the pest or weed control at 100 ppm in test [1], in test [2] and in test [3] was 75 to 100% in each case.

Regarding `CNC(=O)C(=NOC)c1ccccc1COc1ncc(-c2nc(COC)no2)cc1Cl` [Example 61], the figures for the pest or weed control at 100 ppm in test [1], in test [2] and in test [3] were 75 to 100%, 0 to 24% and 75 to 100%, respectively.

`CNC(=O)C(=NOC)c1ccccc1COc1ncc(-c2nc(CSC)no2)cc1Cl` [Example 62]: the pest or weed control at 100 ppm in test [1], in test [2] and in test [3] was 75 to 100% throughout.

Consider `CCc1noc(-c2ccc(OCc3ccccc3C(=NOC)C(=O)NC)nc2)n1` [Example 63], for which the pest or weed control at 100 ppm in test [1] was 75 to 100%; in test [2] it was 25 to 74%; in test [3], 75 to 100%.

For the compound `CNC(=O)C(=NOC)c1ccccc1COc1ncc(-c2cc(C)no2)cc1Cl` [Example 79], the pest or weed control at 100 ppm in test [4] fell in the range of 0 to 24%.

As to `CCc1cc(-c2ccc(OCc3ccccc3C(=NOC)C(=O)NC)nc2)on1` [Example 80], the pest or weed control at 100 ppm in test [4] was in the range of 0 to 24%.
